In patent publication US8355877B2, “System for predicting responsiveness to a pharmaceutical therapy for obesity” (priority 2007, dated 2013):

Columns and labels:
[1] = tested on: DIO-LE rats maintained on a high fat chow; experiment: Cross therapeutic target rat study: reduction of TRL V6 concentration (NMR LipoProfile) after an acute dose; format: in vivo
Experimental: (§1) As a typical example, whole blood samples are collected into 2 ml EDTA blood collection tubes, inverted several times to mix well, and placed on ice. The samples are then centrifuged at approximately 3000 rpm for 10-15 minutes at 4° C. Upon completion of centrifugation, the tube is placed on ice and the plasma is drawn off. The plasma is place into a polypropylene tube and kept at 4° C. until analysis. Samples may be analyzed at any time up to about 4 days after collection. Samples are analyzed for TRL V6 response, as for example by NMR plasma lipoprotein analysis, as for example, the NMR LipoProfile®, the NMR LipoProfile®-II or the NMR LipoProfile®-III lipoprotein tests provided by LipoScience, Inc. of Raleigh, N.C.
(§2) NMR spectral data is analyzed as described in Jeyarajah et al., supra. Lipoprotein subclass concentrations are reported in lipid mass concentration units (TRL subclasses in units of mg/dL triglyceride) or, alternatively, in particle concentration units of nmol/L (nanomoles of particles per liter). The source information (NMR signal amplitude of each subclass) is transformed into these mass or particle concentration units by the analysis software, using a set of conversion factors obtained from chemical lipid and NMR analyses of isolated chylomicron, VLDL, LDL, and HDL subclass standards of normal lipid composition.
The ability of investigational weight loss pharmaceutical agents to reduce the TRL V6 concentration in rats is shown with three compounds targeting different mechanisms of action including a known potent and selective 5-HT2C receptor agonist, a known potent and selective CB-1 receptor antagonist/inverse agonist, and a potent SNDRI (sibutramine). Each of these compounds are known to induce weight loss in rats and thus the biomarker of reduction in TRL V6 concentration correlates to the investigational weight loss pharmaceutical agents' ability to induce weight loss. Conversely, an opiate antagonist, (naltrexone) which is known to be ineffective in inducing weight loss in rats or in overweight and obese human subjects (Malcolm R et al., Int. J. Obes. 1985; 9(5):347-53), is shown to not reduce the TRL V6 concentration in rats, again correlating the biomarker of reduction in TRL V6 concentration to the investigational weight loss pharmaceutical agents' ability to induce weight loss.
DIO-LE rats maintained on a high fat chow are administered either a vehicle dose or an acute dose of test compound. At specified time points post dose, animals are sacrificed and blood is collected in blood sample tubes containing EDTA and processed essentially as described above. Samples are analyzed by NMR LipoProfile® lipoprotein sub-particle test with report of all particle subtypes (specifically the TRL V6 concentration or particle number).

[2] = tested on: hypertriglyceridemic and overweight and obese but otherwise healthy subjects; experiment: Human study with a SNDRI (sibutramine): TRL response to fat load, single-blind crossover vs placebo, NMR LipoProfile III; format: in vivo
Experimental: Note that where TRL V6 response can be equated with the response of a combination of subtypes, it is because the magnitude of the change in signal, which is due to the change of TRL V6 signal, is sufficiently large compared to the base line signal, to be a significant difference (i.e. the signal from TRL V6 in the base line signal dominates the combined signal so that a change in TRL V6 is reliably detected).
as §1, §2
A SNDRI (sibutramine) known to be able to induce weight loss in humans is tested to correlate its ability to reduce TRL V6 response plasma concentrations and V-TRL response in humans in an exploratory biomarker study employing a single-blind, crossover design, comparing sibutramine and placebo in hypertriglyceridemic and overweight and obese but otherwise healthy subjects.
Three cohorts containing 6 subjects each, undergo three periods during the study. Subjects are fasted overnight and two fasting blood draws are obtained, followed by breakfast at approximately 07:00 hours. Placebo or sibutramine is administered at approximately 10:00 hours. Blood sampling is begun approximately 1 hr. after the start of breakfast and continues at hourly intervals for 7 hr., and then every 2 hr. for the next 10 hr. A lunch according to Example fat load 2 is served at approximately 12:00 hours (approximately 60 to 65 g of fat). No other food is permitted until 12 hr. post fat load administration. Subjects are released after the last blood sampling for a 4 to 8-day washout period before return for the second testing period of the study. After the washout period, subjects are again fasted overnight. The procedures are then repeated as in the first testing period of the study except that each subject crosses over to receive the alternate treatment, sibutramine or placebo. Blood samples are collected, processed and analyzed essentially as described in Example 1 above.
TRL V6 responses and V-TRL responses are observed during the period from 5 to 11 hr. post fat load. […] In most subjects, the administration of sibutramine reduced the magnitude of the TRL V6 response and V-TRL response compared to their placebo-treated responses. Thus the reduction of the TRL V6 response and V-TRL response induced by the SNDRI correlates with the SNDRI known ability to induce weight loss in humans.

[3] = 5 hr. post dose, CB-1 antagonist 0.3 mg/kg, SNDRI 3 mg/kg, rats
[4] = rats, 5-HT2C agonist 10 mg/kg, CB-1 antagonist 0.3 mg/kg, SNDRI 3 mg/kg, naltrexone 10 mg/kg oral
[5] = AUC 5-11 hr. post fat load vs placebo, humans
[6] = AUC from lipid load vs placebo, Table 2

In the case of `CC(C)CC(N(C)C)C1(c2ccc(Cl)cc2)CCC1` (stereo not drawn) [Sibutramine, sibutramine], the “reduction of TRL V6 concentration” value ([1]; 2 hr. post dose, 3 mg/kg, rats) is reported as “about 78%”, the “reduction of circulating concentration of TRL V6” value ([1]; 2 hr. post dose, 5-HT2C agonist 10 mg/kg, SNDRI 3 mg/kg, naltrexone 10 mg/kg oral, rats) is reported as “about 78%” and the “reduction of TRL V6 concentration” value [1, 3] is reported as “about 78%”. For the same compound, the “reduction of circulating concentration of TRL V6” value [1, 3] was “about 78%”, the “Reduction in TRL V6 Response, T1-(ie 2 hrs)” value ([1]; T1 (ie 2 hrs) post dose, dose per compound in column Dose (10, 0.3, 3, 10 mg/kg), DIO-LE rats) was 78% and the “Reduction in TRL V6 Response, T2-(ie 5 hrs)” value ([1]; T2 (ie 5 hrs) post dose, dose per compound in column Dose, DIO-LE rats) was 78%. The “Reduction in TRL V6 Response, T3-(ie 18 hrs)” value ([1]; T3 (ie 18 hrs) post dose, dose per compound in column Dose, DIO-LE rats) was 0%, the “time post dose at which TRL V6 plasma concentration returns to baseline” value [1, 4] was no more than 18 h and the “change in mean V-TRL response” value [2, 5] was “statistically significant decrease”. For the same compound, the “change in the plasma concentrations of TRL V1, V2, V3, V4, or V5 subtypes” value [2, 5] was “does not show a significant change”, the “decrease in the TRL V6 response (AUC) vs placebo” value ([2]; AUC 5-11 hr. post fat load, mixed effects model, statistically significant, humans) was “about 28%” and the “change in TRL V6+TRL V5” value [2, 6] was “did not produce a significant change”. The “change in TRL V6+TRL V5+chylomicrons” value [2, 6] was “did not produce a significant change”, the “change in TRL V6+chylomicrons” value [2, 6] was “showed a significant change” and the “effect on TRL V6 response” value [2, 6] was “reduced the TRL V6 response”. For the same compound, the “Sibutramine/Placebo Ratio of AUC, TRL V5” value ([2]; TRL V5, AUC 5-11 hr. from lipid load, P 0.474) was 1.10, the “Geometric LS Mean of AUC, TRL V5” value ([2]; TRL V5, AUC 5-11 hr. time points from lipid load, human plasma, NMR) was 222.34 and the “Sibutramine/Placebo Ratio of AUC, TRL V6 + Chy” value ([2]; TRL V6 + Chy, AUC 5-11 hr. from lipid load, P 0.004) was 0.81. For the same compound, the “Geometric LS Mean of AUC, TRL V6 + Chy” value ([2]; TRL V6 + Chy, AUC 5-11 hr. time points from lipid load, human plasma, NMR) was 205.0, the “Sibutramine/Placebo Ratio of AUC, TRL V6 + TRL V5” value ([2]; TRL V6 + TRL V5, AUC 5-11 hr. from lipid load, P 0.091) was 0.88 and the “Geometric LS Mean of AUC, TRL V6 + TRL V5” value ([2]; TRL V6 + TRL V5, AUC 5-11 hr. time points from lipid load, human plasma, NMR) was 364.08. For the same compound, the “Sibutramine/Placebo Ratio of AUC, TRL V6 + V5 + Chy” value ([2]; TRL V6 + V5 + Chy, AUC 5-11 hr. from lipid load, P 0.110) was 0.89, the “Geometric LS Mean of AUC, TRL V6 + V5 + Chy” value ([2]; TRL V6 + V5 + Chy, AUC 5-11 hr. time points from lipid load, human plasma, NMR) was 458.04 and the “Sibutramine/Placebo Ratio of AUC, TRL V6” value ([2]; TRL V6, AUC 5-11 hr. from lipid load, P 0.001) was 0.73. The “Geometric LS Mean of AUC, TRL V6” value ([2]; TRL V6, AUC 5-11 hr. time points from lipid load, human plasma, NMR) was 119.35, the “Sibutramine/Placebo Ratio of AUC, Chy” value ([2]; chylomicrons, AUC 5-11 hr. from lipid load, P 0.721) was 0.98 and the “Geometric LS Mean of AUC, Chy” value ([2]; chylomicrons, AUC 5-11 hr. time points from lipid load, human plasma, NMR) was 81.11.
In the case of `O=C1CC[C@@]2(O)[C@H]3Cc4ccc(O)c5c4[C@@]2(CCN3CC2CC2)[C@H]1O5` [Naltrexone, naltrexone], the “TRL V6 level versus baseline at 18 hr. post dose” value ([1]; 10 mg/kg oral, 18 hr. post dose, rats) is reported as “unchanged”, the “effect on circulating TRL V6 levels” value ([1]; 10 mg/kg orally administrated dose, rats) is reported as “minimal effect” and the “time post dose at which TRL V6 plasma concentration returns to baseline” value [1, 4] is reported as 5 h.
